From US20250064056A1, “CONTACT PHEROMONE-CONTAINING COMPOSITION FOR CONTROLLING THRIPS, KIT COMPOSITION FOR CONTROLLING THRIPS, AND METHOD OF CONTROLLING THRIPS BY USING SAME” (Andong National University Industry-Academic Cooperation …, priority 2023, published 2025) come the findings set out here.

What all share (type): in vivo
Assay [1] concerns Frankliniella occidentalis. The assay is described as follows: Outdoor pest control test on open-field peppers, F. occidentalis. As to conditions: for Contol efficacy (%) (control value) / Survival (%) Mean / Survival (%) I / Survival (%) II / Survival (%) III: 3 days after treatment, dose a.i. μg/mL: 7MT 100, Spinetoram 12.5; for Survival (%) Mean: mean of 3 replicates; for Survival (%) I: replicate I; for Survival (%) II: replicate II; for Survival (%) III: replicate III. As to the method:
(§1) Each treatment was repeated three times using the egg mass method in open pepper production areas located in Songcheon-dong, Andong-si, Gyeongsangbuk-do. Each test group was pepper individuals, and the distance between these individuals was maintained at least 6 m. The amount of chemical agent sprayed on each pepper individual was 30 mL, and the chemical agent was sufficiently sprayed on the entire peppers. […] […] The control group was treated with a distilled chemical agent. The density of thrips was calculated before treatment and on days 1 and 3 after treatment. The classification of these three different thrips was carried out by using the shape identification method presented by Kim et al. (2021).
(§2) For the indoor behavioral experiment, one-way ANOVA analysis was performed using PROC GLM (SAS Institute, 1989). The effectiveness of outdoor pest control was confirmed by calculating the survival rate and performing […] and two-way ANOVA analysis. Comparison between treatment means was determined based on a Type I error probability of 0.05 using an LSD method.
(§3) A test was conducted to check the outdoor control efficiency by adding a contact pheromone causing behavior disruption to Spinetoram having a relatively high control efficiency against thrips. At the end of May 2023, when the test was conducted, Frankliniella occidentalis and Frankliniella intonsa appeared around peppers in open areas in the Andong region. By taking advantage of this situation, treatment with a chemical agent alone and treatment with a chemical agent/contact pheromone mixture were implemented. In the untreated control group, an increase in the density of two thrips was observed. However, in the mixed treatment with Spinetoram, an overall decrease in the density was clearly observed.
(§4) To analyze the results in detail, a control value on the 3rd day of treatment was calculated. […] The average survival rate was lowered in all treatment cases compared to no treatment cases. […] At this time, when the contact pheromone was added, the control value increased for both thrips.

Assay [2] has as its system Frankliniella intonsa. Kind of assay: Outdoor pest control test on open-field peppers, F. intonsa. As to conditions: for Contol efficacy (%) (control value) / Survival (%) Mean / Survival (%) I / Survival (%) II / Survival (%) III: 3 days after treatment, dose a.i. μg/mL: 7MT 100, Spinetoram 12.5; for Survival (%) Mean: mean of 3 replicates; for Survival (%) I: replicate I; for Survival (%) II: replicate II; for Survival (%) III: replicate III. How it is done:
as §1, §2, §3, §4

The subject of a further assay is Total thrips. Kind of assay: Outdoor pest control test on open-field peppers, total thrips. As to conditions: 3 days after treatment, dose a.i. μg/mL: 7MT 100, Spinetoram 12.5; for Survival (%) Mean: mean of 3 replicates; for Survival (%) I: replicate I; for Survival (%) II: replicate II; for Survival (%) III: replicate III. As to the method: as §1, §2, §3, §4
Assay [3] deals with Frankliniella occidentalis. Kind of assay: Behavioral test (petri dish, treated vs control kidney bean feed), F. occidentalis. Conditions: 10 μL on filter paper, 10 minutes, FIG. 1B. How it is done:
(§5) FIGS. 1A, 1B, and 1C show the results of behavioral tests in a container for behavior analysis (A) for two types of thrips (F. occidentalis (B) and F. intonsa (C)), in the container for behavior analysis (A), a […] placed on a filter paper disk was treated with 7-methyltricosane (7TM), the control diet was treated with acid solvent, after 10 minutes, the number of thrips that reached each feed was counted, each treatment was repeated four times by exchanging the positions of the treatment and control groups, asterisk indicates a significant difference with type I error=0.05 (LSD test), and “NS” means no significant difference; and
(§6) A filter paper was unfolded in the behavior test site, and two kidney beans were placed away at a distance of 50 mm as bait. Each of the test substances was applied on top of each feed. In the test substance treatment, 10 μL of 7TM substance was sprayed onto 5 mm circular filter paper. In the case of the control group, the same volume of hexane was sprayed onto a filter paper as a test substance. Each circular filter paper differently treated was placed on any one of the two kidney beans. Next, test individuals were placed in the center 40 mm away from both feed sources. Afterward, the individuals having reached each feed were counted for 10 minutes at room temperature. 10 individuals were used in each test, and each test was repeated 4 times. The positions of the control group and the treatment group were exchanged in each repetition. […]
(§7) For the indoor behavioral experiment, one-way ANOVA analysis was performed using PROC GLM (SAS Institute, 1989). […] Comparison between treatment means was determined based on a Type I error probability of 0.05 using an LSD method.
(§8) To analyze the behavioral responses of thrips with affinity for a contact pheromone, a behavior analysis container (shown in FIG. 1(A)) was manufactured using a petri dish. Thrips were prepared to be near the treated feed, and after inducing the behavioral responses for 10 minutes, some of the thrips staying near the pheromone-treated feed were counted.

The test system of assay [4] is Frankliniella intonsa. The assay is described as follows: Behavioral test (petri dish, treated vs control kidney bean feed), F. intonsa. As to conditions: 10 μL on filter paper, 10 minutes, FIG. 1C. How it is done:
as §5, §6, §7, §8

The mark [5] stands for this setting: contact pheromone alone, 3rd day of treatment.

In the case of Spinetoram [reference compound], in assay [1], the “Contol efficacy (%) (control value)” value turned out to be 71.9%, the “Survival (%) Mean” value is given as 146.4%, the “Survival (%) I” value is recorded as 150.0% and the “Survival (%) II” value amounted to 175.0%. Also, the “Survival (%) III” value in assay [1] is 114.3%. Moreover, in the assay on Frankliniella intonsa [2], the “Contol efficacy (%) (control value)” value was determined as 80.3%, the “Survival (%) Mean” value was found to be 33.6%, the “Survival (%) I” value was determined as 40.0% and the “Survival (%) II” value was found to be 22.2%. For the same molecule, the “Survival (%) III” value in the assay with Frankliniella intonsa [2] was 38.5%. Besides, in the assay on Total thrips, the “Contol efficacy (%) (control value)” value is 76.2%, the “Survival (%) Mean” value is on record as 60.5%, the “Survival (%) I” value was 73.3% and the “Survival (%) II” value is reported as 46.2%. Further, the “Survival (%) III” value in the assay on Total thrips came out at 61.1%.

As to `CCCCCCCCCCCCCCCCC(C)CCCCCC` (centres unmarked) [7MT, 7-Methyltricosane], the “Contol efficacy (%) (control value)” value is recorded as 31.2% in assay [1], 32.2% in the assay on Frankliniella intonsa [2] and 12.4% in the assay with Total thrips. For the same molecule, the “density of thrips vs no treatment (in words)” value in assay [1] (setting [5]) is “it was not”; in the assay on Frankliniella intonsa [2] (setting [5]) it was “statistically significantly reduced”. For the same molecule, the “Survival (%) Mean” value was 358.3% in assay [1], 115.7% in the assay on Frankliniella intonsa [2] and 222.2% in the assay on Total thrips. Also, the “Survival (%) I” value in assay [1] was 500.0%; in the assay on Frankliniella intonsa [2], 133.3%; in the assay on Total thrips, 300.0%. The “Survival (%) II” value was 300.0% in assay [1], 150.0% in the assay with Frankliniella intonsa [2] and 233.3% in the assay with Total thrips. For the same molecule, the entries for the “Survival (%) III” value (in assay [1]; with Frankliniella intonsa [2]; with Total thrips) were 275.0%, 63.6% and 133.3%, respectively. Moreover, the “behavioral response to pheromone-treated feed” value in assay [3] (F. occidentalis adult females) is “high preference”; in assay [3] (F. occidentalis adult males), “avoiding feed sprayed with the contact pheromone”; in assay [3] (F. occidentalis second-instar larvae) it was “did not show specific selection behavior”; in the assay on Frankliniella intonsa [4] (F. intonsa adult females) it was “high preference”; in the assay on Frankliniella intonsa [4] (F. intonsa adult males), “avoiding feed sprayed with the contact pheromone”; in the assay on Frankliniella intonsa [4] (F. intonsa second-instar larvae) it was “did not show specific selection behavior”.
